Measured values taken from patent publication US11827690B2, “ApoC-II mimetic peptides” (THE UNITED STATES OF AMERICA, as represented by the …, priority 2017, dated 2023).

Tests used:
[1] = target: T1, LPL inhibited by apoC-III (Bos taurus, UniProt P11151); assay: LPL activation assay with Intralipid as substrate and recombinant apoC-III as an inhibitor; type: biochemical; settings: Intralipid substrate, FIG. 31
T1 sequence (P11151 29-478): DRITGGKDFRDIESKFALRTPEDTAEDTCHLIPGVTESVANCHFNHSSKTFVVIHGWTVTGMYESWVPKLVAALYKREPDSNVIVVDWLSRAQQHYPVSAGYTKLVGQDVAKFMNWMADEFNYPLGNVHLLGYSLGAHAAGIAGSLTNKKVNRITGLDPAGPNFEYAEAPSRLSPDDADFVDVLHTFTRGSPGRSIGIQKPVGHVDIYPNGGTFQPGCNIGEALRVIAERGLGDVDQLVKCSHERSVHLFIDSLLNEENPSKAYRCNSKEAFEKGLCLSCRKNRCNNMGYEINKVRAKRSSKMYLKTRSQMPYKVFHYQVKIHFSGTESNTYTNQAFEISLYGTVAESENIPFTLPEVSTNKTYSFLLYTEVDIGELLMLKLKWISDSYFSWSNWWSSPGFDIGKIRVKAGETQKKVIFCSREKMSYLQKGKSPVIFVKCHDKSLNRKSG
Description: LPL activity assay: 10 μL of Intralipid, human plasma sample, or mouse plasma sample was added in each well using repeater pipette. 10 μL (or 15 μL in the wells with no LPL control) of PBS and 10 μL of 1% BSA was added in each well using repeater pipette. 10 μL of peptides were added to corresponding wells in vertical triplicates (lowest concentration is on a left, highest is on the right). The plate was spun down at 1000 RPM for 10 seconds to mix and to remove the solutions from the wall of each well. The plate was put on ice and 5 μL of LPL was added using repeater pipette. The plate was spun down again at 1000 RPM for 10 seconds. The plate was covered and put back on ice for an incubation of 30 min. The plate was then moved to 37° C. and incubated for 1 hour.
Free fatty acids (NEFA) assay: 45 μL of 5 nmoL standard and 0 nmoL control (0.2% BSA) were added to corresponding wells. 225 μL of reagent A was added in each well using the reagent tray and 12-channel pipette. The plate was incubated for 10 min before 75 μL of reagent B was added to each well using the reagent tray and 12-channel pipette. The plate was not covered due to the high volume. The absorbance at 550 nm and 660 nm was measured.
LPL assay was performed using Intralipid, high TG human plasma (1:50 dilution), or apoC-III transgenic mouse plasma (1:50 dilution). When Intralipid was used as a substrate, 25 or 50 μM recombinant ApoC-III was added as an inhibitor. When the high TG human plasma was used as a substrate, 25 or 50 μM recombinant ApoC-III was added as an inhibitor with or without pre-incubation at 37° C. for 1 hour. An apoC-II mimetic peptide was added at various concentrations.

LPL = target: T2, LPL (Bos taurus, UniProt P11151); assay: addition of exogenous LPL to serum samples collected after IP injection with Intralipid; type: biochemical
T2 sequence (P11151 29-478): T1 sequence (P11151 29-478)

apoC-III transgenic mice = assay: serum TG of apoC-III transgenic mice after Intralipid injection; type: in vivo; settings: peptide IP 1 hour after Intralipid, 5 and 10 μmole/kg, FIG. 39
Description: C57Bl/6 mice (wild-type), apoC-II knockout (apoC-II KO) mice, and apoC-III transgenic mice were used for in vivo study. The C57Bl/6 mice (wild-type) were purchased from Taconic Biosciences Inc. The apoC-II KO mice were created as described in Sakurai et al., J Pharmacol Exp Ther 356:341-353, 2016. The apoC-III transgenic mice were generated by overexpressing human apoC-III in C57Bl/6 mice. See Qu et al., J. Lipid Res. 48:1476-1487, 2007.
Mice were fasted overnight (approximately 12 hours) before the study and 6 hours during the study, the next day. The apoC-II mimetic peptides were synthetically produced and free of biological contamination (not available as FDA approved compounds/treatment). Peptides were produced and used in sterile conditions and filtered by 0.2 nm filter before injections in a single dose 1-10 μmol/kg body weight (B. W.) administered either subcutaneous injection (S.Q. or S.C.), intraperitoneal injection (I.P.) or intravenous injection (I.V.) (in a sterile, pharmaceutical grade PBS solution at a volume ≤200 μL) as described in Sakurai et al., J Pharmacol Exp Ther 356:341-353, 2016. […]

bovine LPL = target: T3, bovine LPL (Bos taurus, UniProt P11151); assay: in vitro LPL assay using hypertriglyceridemia patient sera as substrate; type: biochemical; settings: patient sera TG about 1000 mg/dL to about 1700 mg/dL, FIGS. 15A-D
T3 sequence (P11151 29-478): T1 sequence (P11151 29-478)
In short: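 Bovine LPL (diluted stock) added to Intralipid or human or mouse plasma with BSA and peptides in triplicate, held 30 min on ice, then incubated 1 hour at 37° C. Released free fatty acids measured by colorimetric NEFA assay at 550/660 nm against an oleic acid standard.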

[2] = tested on: obese monkeys with a plasma TG level of greater than 2 mmol/L; assay: in vivo studies in the obese monkey model
Description: Monkeys with a TG level greater than 2 mmol/L were selected, trained and assigned into 3 groups (control, 1 mg/kg Delta6PV, and 5 mg/kg Delta6PV). The desired dose was injected intravenously into the animals at 0 h time point. The monkeys were monitored over the course of 72 hours and blood samples at different time points were collected for biomarker analysis.

Row | LPL activation (bovine LPL) | Sequence | effect on inhibition of LPL by apoC-III [1] | effect on inhibition of LPL by apoC-III ([1]; listed as ApoC-II-a) | lipoprotein particles from treated mice as substrates for LPL (LPL) | serum TG increase after Intralipid injection (apoC-III transgenic mice) | dose dependence of effect ([2]; 1 and 5 mg/kg intravenous) | VLDL level ([2]; FIG. 48A) | LDL level ([2]; FIG. 48B) | HDL level ([2]; FIG. 48C) | plasma TG level ([2]; single intravenous injection, 1 and 5 mg/kg, 24 h, 48 h, and 72 h after the injection)
1 | – | DWLKAFYDKVAEKLKEAFPAMSTYTGIFTDQVLSVLKGEE (listed as Homo sapiens) [apoC-II-a, excluded from the claimed peptides] | overcame the inhibitory effect of apoC-III and facilitated lipolysis in a dose-dependent manner | overcomes the inhibition by apoC-III | better substrates for LPL | – | – | – | – | – | –
2 | activated LPL in vitro | DYLKEVFEKLRDLYEKFTPAVSTYTGIFTDQVLSVLKGEE [Delta6PV] | – | – | – | the TG increase was significantly reduced | dose-dependent | marked reduction of the VLDL level | did not change significantly | did not change significantly | significant reduction of plasma TG level
